Results: patent US20220218715A1, “NOVEL USE OF PYRROLO-PYRIDINE DERIVATIVE COMPOUND FOR PREVENTION AND/OR TREATMENT OF CANCER” (VORONOI CO., LTD., priority 2019, published 2022)

Legend:
Assay in all cases: scanMAX Kinase analysis panel (DiscoverX)
Assay type in all cases: binding
Details in all cases: 1 μM in DMSO
[1] = biological target: T1, ABL1-nonphosphorylated (Homo sapiens, UniProt P00519)
T1 construct: purchased DiscoverX
Excerpt: (§1) [(Example Compound−Positive Control)/(Negative Control−Positive Control)×100]

[2] = biological target: T2, ALK (Homo sapiens, UniProt Q9UM73)
T2 construct: purchased DiscoverX
Excerpt: as §1

[3] = biological target: T3, ALK (L1196M) (Homo sapiens, UniProt Q9UM73, L1196M)
T3 construct: purchased DiscoverX
Excerpt: as §1

[4] = biological target: T4, ALK(C1156Y) (Homo sapiens, UniProt Q9UM73, C1156Y)
T4 construct: purchased DiscoverX
Excerpt: as §1

[5] = biological target: T5, CAMK2D (Homo sapiens, UniProt Q13557)
T5 construct: purchased DiscoverX
Excerpt: as §1

[6] = biological target: T6, CAMKK2 (Homo sapiens, UniProt Q96RR4)
T6 construct: purchased DiscoverX
Excerpt: as §1

[7] = biological target: T7, CHEK2 (Homo sapiens, UniProt O96017)
T7 construct: purchased DiscoverX
Excerpt: as §1

[8] = biological target: T8, CSNK1A1 (Homo sapiens, UniProt P48729)
T8 construct: purchased DiscoverX
Excerpt: as §1

[9] = biological target: T9, ERK5 (Homo sapiens, UniProt Q13164)
T9 construct: purchased DiscoverX scanMAX Kinase analysis panel
Excerpt: as §1

[10] = biological target: T10, GAK (Homo sapiens, UniProt O14976)
T10 construct: purchased DiscoverX
Excerpt: as §1

[11] = biological target: T11, HUNK (Homo sapiens, UniProt P57058)
T11 construct: purchased DiscoverX scanMAX Kinase analysis panel
Excerpt: as §1

[12] = biological target: T12, INSR (Homo sapiens, UniProt P06213)
T12 construct: purchased DiscoverX scanMAX Kinase analysis panel
Excerpt: as §1

[13] = biological target: T13, JAK1 (JH2domain-psudokinase) (Homo sapiens, UniProt P23458)
T13 construct: JAK1 (JH2domain-pseudokinase); purchased DiscoverX scanMAX Kinase analysis panel
Excerpt: as §1

[14] = biological target: T14, JNK1 (Homo sapiens, UniProt P45983)
T14 construct: purchased DiscoverX
Excerpt: as §1

[15] = biological target: T15, JNK2 (Homo sapiens, UniProt P45984)
T15 construct: purchased DiscoverX scanMAX Kinase analysis panel
Excerpt: as §1

[16] = biological target: T16, JNK3 (Homo sapiens, UniProt P53779)
T16 construct: purchased DiscoverX scanMAX Kinase analysis panel
Excerpt: as §1

[17] = biological target: T17, LRRK2 (G2019S) (Homo sapiens, UniProt Q5S007, G2019S)
T17 construct: purchased DiscoverX
Excerpt: as §1

[18] = biological target: T18, LRRK2 (Homo sapiens, UniProt Q5S007)
T18 construct: purchased DiscoverX scanMAX Kinase analysis panel
Excerpt: as §1

[19] = biological target: T19, LTK (Homo sapiens, UniProt P29376)
T19 construct: purchased DiscoverX
Excerpt: as §1

[20] = biological target: T20, MAPKAPK2 (Homo sapiens, UniProt P49137)
T20 construct: purchased DiscoverX scanMAX Kinase analysis panel
Excerpt: as §1

[21] = biological target: T21, MYLK (Homo sapiens, UniProt Q15746)
T21 construct: purchased DiscoverX
Excerpt: as §1

[22] = biological target: T22, PAK2 (Homo sapiens, UniProt Q13177)
T22 construct: purchased DiscoverX
Excerpt: as §1

[23] = biological target: T23, PHKG1 (Homo sapiens, UniProt Q16816)
T23 construct: purchased DiscoverX
Excerpt: as §1

T12 sequence (P06213 28-1382): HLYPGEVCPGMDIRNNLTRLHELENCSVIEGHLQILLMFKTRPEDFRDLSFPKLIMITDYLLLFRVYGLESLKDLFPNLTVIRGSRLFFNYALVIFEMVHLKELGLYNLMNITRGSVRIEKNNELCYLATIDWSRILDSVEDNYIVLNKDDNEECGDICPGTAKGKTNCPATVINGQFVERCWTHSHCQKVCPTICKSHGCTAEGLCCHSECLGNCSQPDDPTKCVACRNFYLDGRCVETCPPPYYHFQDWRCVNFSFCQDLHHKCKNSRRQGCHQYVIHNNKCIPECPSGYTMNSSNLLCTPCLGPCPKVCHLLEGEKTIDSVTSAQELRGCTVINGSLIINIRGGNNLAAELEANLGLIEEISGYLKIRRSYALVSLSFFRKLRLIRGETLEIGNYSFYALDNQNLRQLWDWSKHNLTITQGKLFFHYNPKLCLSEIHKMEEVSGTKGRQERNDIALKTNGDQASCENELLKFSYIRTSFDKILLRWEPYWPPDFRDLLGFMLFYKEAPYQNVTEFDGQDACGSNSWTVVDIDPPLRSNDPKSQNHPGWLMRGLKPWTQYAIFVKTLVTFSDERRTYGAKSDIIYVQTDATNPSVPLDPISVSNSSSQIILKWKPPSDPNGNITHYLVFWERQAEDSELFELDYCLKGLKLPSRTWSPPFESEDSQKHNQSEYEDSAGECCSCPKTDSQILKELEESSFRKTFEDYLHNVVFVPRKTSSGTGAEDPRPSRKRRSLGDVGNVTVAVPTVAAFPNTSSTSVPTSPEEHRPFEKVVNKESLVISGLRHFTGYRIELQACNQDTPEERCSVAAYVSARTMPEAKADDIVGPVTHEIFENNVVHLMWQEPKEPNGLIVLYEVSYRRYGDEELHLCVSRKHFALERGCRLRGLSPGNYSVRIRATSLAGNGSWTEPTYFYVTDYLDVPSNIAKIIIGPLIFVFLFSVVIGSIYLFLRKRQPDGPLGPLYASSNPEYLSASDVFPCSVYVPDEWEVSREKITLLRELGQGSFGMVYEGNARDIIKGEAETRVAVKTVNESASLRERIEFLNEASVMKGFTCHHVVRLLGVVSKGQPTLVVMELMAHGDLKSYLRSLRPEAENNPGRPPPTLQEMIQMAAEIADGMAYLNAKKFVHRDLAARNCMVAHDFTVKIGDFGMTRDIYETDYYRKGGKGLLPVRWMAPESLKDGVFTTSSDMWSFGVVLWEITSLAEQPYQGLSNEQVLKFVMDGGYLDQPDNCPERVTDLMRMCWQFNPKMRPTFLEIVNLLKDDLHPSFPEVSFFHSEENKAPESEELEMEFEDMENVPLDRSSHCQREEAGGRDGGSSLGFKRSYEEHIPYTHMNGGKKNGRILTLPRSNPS
T13 sequence (P23458 583-855 limits assumed): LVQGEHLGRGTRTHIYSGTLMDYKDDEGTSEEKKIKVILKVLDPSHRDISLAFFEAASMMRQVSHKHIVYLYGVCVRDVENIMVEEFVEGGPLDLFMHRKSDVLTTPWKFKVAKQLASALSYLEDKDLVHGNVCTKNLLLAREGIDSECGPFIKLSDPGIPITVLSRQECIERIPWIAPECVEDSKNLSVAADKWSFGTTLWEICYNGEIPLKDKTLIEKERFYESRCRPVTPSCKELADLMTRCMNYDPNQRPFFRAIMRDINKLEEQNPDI
T22 sequence (Q13177 whole entry): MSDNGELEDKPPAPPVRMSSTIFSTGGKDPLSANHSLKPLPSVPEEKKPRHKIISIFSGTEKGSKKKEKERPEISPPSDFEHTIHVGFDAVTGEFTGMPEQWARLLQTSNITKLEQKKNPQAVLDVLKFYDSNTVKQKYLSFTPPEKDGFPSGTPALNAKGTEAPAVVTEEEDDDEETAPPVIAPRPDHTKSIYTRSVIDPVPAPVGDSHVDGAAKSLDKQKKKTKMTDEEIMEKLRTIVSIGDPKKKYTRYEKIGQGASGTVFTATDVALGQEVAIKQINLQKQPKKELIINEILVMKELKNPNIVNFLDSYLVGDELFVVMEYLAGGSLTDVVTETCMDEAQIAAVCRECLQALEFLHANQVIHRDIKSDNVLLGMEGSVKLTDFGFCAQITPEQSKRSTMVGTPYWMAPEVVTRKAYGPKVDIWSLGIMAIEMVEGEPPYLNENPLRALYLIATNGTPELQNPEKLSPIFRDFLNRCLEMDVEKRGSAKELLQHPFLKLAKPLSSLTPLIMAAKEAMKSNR
T2 sequence (Q9UM73 19-1620): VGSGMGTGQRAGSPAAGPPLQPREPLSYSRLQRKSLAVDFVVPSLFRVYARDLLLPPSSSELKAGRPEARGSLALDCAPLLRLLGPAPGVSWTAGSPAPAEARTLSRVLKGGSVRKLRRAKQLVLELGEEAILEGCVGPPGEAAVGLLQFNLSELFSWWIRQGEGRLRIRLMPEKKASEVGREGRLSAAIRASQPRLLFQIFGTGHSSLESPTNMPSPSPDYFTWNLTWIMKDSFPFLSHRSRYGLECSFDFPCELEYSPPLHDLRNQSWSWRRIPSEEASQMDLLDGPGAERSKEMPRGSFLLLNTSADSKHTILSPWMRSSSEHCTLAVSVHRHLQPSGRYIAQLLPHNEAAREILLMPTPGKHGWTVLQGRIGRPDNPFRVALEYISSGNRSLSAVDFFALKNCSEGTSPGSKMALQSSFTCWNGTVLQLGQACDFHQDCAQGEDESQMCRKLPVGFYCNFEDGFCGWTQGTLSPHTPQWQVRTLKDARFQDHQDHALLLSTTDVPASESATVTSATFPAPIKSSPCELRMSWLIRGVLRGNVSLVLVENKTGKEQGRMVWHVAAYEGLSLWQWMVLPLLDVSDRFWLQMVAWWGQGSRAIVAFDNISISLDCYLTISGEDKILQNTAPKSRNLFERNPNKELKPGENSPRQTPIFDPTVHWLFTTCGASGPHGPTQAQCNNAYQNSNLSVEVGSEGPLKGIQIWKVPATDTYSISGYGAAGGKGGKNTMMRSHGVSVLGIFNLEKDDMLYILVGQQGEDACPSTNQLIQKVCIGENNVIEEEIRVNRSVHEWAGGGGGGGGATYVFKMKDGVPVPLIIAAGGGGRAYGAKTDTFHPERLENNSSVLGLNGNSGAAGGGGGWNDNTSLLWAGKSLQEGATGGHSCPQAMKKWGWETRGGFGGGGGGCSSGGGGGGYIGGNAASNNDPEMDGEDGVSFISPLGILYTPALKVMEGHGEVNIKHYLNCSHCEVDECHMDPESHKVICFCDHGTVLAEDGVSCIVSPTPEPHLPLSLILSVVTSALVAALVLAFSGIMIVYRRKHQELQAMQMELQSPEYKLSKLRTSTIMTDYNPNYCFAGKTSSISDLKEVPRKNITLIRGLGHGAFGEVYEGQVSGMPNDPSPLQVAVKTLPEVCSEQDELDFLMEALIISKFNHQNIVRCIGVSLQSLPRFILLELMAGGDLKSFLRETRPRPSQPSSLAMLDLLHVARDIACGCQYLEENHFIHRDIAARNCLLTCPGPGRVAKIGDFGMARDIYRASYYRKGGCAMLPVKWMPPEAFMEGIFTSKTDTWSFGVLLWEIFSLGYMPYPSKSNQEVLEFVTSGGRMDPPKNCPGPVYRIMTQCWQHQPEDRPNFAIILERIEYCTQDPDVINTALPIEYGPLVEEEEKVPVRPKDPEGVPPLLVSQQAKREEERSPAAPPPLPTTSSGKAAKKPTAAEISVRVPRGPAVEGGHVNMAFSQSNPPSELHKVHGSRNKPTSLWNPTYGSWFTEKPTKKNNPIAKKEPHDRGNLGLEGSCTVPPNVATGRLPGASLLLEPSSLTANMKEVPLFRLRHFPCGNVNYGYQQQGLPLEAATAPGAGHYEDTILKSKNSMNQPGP
T14 sequence (P45983 whole entry): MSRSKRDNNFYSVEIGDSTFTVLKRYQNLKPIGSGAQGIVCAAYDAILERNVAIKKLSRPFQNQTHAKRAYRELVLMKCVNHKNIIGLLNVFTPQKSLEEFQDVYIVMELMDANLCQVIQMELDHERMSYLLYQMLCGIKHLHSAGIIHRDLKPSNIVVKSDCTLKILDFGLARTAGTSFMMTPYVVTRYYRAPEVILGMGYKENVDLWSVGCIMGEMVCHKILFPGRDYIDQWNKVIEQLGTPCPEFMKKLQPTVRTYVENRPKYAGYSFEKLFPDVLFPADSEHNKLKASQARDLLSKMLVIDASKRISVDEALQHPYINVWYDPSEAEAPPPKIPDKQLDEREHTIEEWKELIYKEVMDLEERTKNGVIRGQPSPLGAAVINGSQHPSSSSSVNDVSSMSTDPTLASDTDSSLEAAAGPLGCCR
T4 sequence (Q9UM73 19-1620 C1156Y): as the sequence (Q9UM73 19-1620) above, with C1138Y counted along it
T11 sequence (P57058 whole entry): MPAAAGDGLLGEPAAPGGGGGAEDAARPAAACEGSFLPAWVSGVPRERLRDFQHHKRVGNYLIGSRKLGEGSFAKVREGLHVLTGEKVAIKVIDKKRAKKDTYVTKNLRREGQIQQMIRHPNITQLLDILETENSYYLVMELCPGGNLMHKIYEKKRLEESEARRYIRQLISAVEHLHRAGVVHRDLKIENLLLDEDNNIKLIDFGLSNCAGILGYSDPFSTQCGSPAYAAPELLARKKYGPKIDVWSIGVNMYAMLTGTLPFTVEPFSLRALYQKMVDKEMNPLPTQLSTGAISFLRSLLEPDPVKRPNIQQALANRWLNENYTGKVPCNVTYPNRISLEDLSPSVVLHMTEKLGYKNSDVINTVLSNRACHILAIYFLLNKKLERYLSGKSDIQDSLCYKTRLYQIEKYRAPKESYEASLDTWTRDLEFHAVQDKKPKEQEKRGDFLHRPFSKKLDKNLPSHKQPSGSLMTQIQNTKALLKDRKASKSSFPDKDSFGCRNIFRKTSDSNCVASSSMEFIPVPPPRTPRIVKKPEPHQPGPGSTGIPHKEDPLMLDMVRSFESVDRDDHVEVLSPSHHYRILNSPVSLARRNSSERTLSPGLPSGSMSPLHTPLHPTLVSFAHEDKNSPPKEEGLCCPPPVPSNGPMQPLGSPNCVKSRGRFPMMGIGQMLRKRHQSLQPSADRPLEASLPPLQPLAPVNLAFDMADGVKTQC
T3 sequence (Q9UM73 19-1620 L1196M): as the sequence (Q9UM73 19-1620) above, with L1178M counted along it

`CCNc1cc(Nc2ccc(C(=O)N3CCC(N4CCOCC4)CC3)cc2OC)nc2[nH]cc(C(F)(F)F)c12` [Compound 1, (4-((4-(ethylamino)-3-(trifluoromethyl)-1H-pyrrolo[2,3-b]pyridine-6-yl)amino)-3-methoxyphenyl) (4-morpholinopiperidine-1-yl)methanone] gave an inhibition at 1 µM [1] of 40 to 59%, an inhibition at 1 µM [2] of no less than 59% and an inhibition at 1 µM [3] of no less than 59%. The inhibition at 1 µM [4] was no less than 59%, the inhibition at 1 µM [5] was 40 to 59% and the inhibition at 1 µM [6] was 40 to 59%. For the same compound, the inhibition at 1 µM [7] was 40 to 59%, the inhibition at 1 µM [8] was 40 to 59% and the inhibition at 1 µM [9] was 40 to 59%. It also gave an inhibition at 1 µM [10] of no less than 59%, an inhibition at 1 µM [11] of 40 to 59% and an inhibition at 1 µM [12] of 40 to 59%. For the same compound, the inhibition at 1 µM [13] was 40 to 59%, the inhibition at 1 µM [14] was no less than 59% and the inhibition at 1 µM [15] was 40 to 59%. The inhibition at 1 µM [16] was 40 to 59%, the inhibition at 1 µM [17] was no less than 59% and the inhibition at 1 µM [18] was 40 to 59%. It also gave an inhibition at 1 µM [19] of no less than 59%, an inhibition at 1 µM [20] of 40 to 59% and an inhibition at 1 µM [21] of no less than 59%. The inhibition at 1 µM [22] was no less than 59% and the inhibition at 1 µM [23] was no less than 59%.
